# Calls of active or inactive are those of the source. The rule behind the calls is not given here.
# Tests used:
# [1] = molecular target: Polymerase acidic protein (Influenza A virus (A/Puerto Rico/8/1934(H1N1)), UniProt P03433); test: Inhibition of Influenza A virus (A/WSN/1933(H1N1)) CEN using m7G[5']-ppp-[5'] [m2'-O]GAA UAU(-Cy3) GCAUCACUAGUAAGCUUUGCUCUA(-BHQ2)-3' as substrate measured after 60 mins by fluorescence assay
# Influenza A virus [2] = format: functional, organism-based; conditions: A/WSN/1933(H1N1), MDCK, 72 h
# [3] = Metabolic stability in Crj:CD(SD) rat liver microsomes assessed as compound remaining at 2 uM incubated for 30 mins by LC/MS/MS analysis; format: ADME, Microsome; conditions: read-out: Stability
# [4] = In vivo total clearance in Sprague-Dawley rat at 0.5 mg/kg, iv administered as single dose after 2 to 360 mins by LC/MS/MS analysis; format: ADME, organism-based
# [5] = Protein binding in rat serum assessed as unbound fraction after 24 hrs by LC-MS based equilibrium dialysis analysis; format: ADME, cell-free
# Influenza A virus [6] = format: functional, organism-based; conditions: MDCK
# Influenza A virus [7] = test: microbe, parasite or virus in culture
# Description: Antiviral activity against Influenza A virus
# Influenza A virus [8] = format: functional, organism-based; conditions: A/Puerto Rico/8/1934(H1N1), MDCK, 72 h
# Influenza A virus H3N2 [9] = format: functional, organism-based; conditions: A/Victoria/3/1975(H3N2), MDCK, 72 h
# Influenza A virus H3N2 [10] = format: functional, organism-based; conditions: A/Hong Kong/8/68, MDCK, 72 h
# Influenza B virus [11] = test: Antiviral activity against Influenza B virus (B/Hong Kong/05/72) infected in MDCK cells assessed as reduction in virus-induced cytopathic effect incubated for 72 hrs by WST assay; format: functional, organism-based; conditions: B/Hong Kong/05/1972, MDCK
# Influenza B virus [12] = test: Antiviral activity against Influenza B virus (B/Maryland/1/59) infected in MDCK cells assessed as reduction in virus-induced cytopathic effect incubated for 72 hrs by WST assay; format: functional, organism-based
# Influenza B virus [13] = test: Antiviral activity against Influenza B virus (B/Maryland/1/59) infected in iv dosed BALB/C mouse administered once daily; format: functional
# Influenza B virus [14] = test: Antiviral activity against Influenza B virus (B/Maryland/1/59) infected in BALB/C mouse assessed as mouse survival at 10 mg/kg, iv administered once daily relative to control; format: functional
# Influenza B virus [15] = test: Antiviral activity against Influenza B virus (B/Maryland/1/59) infected in BALB/C mouse assessed as increase in mouse survival at 0.08 to 2 mg/kg, iv administered once daily; format: functional, organism-based
# [16] = Cytotoxicity against MDCK cells after 3 days by WST-8 assay; format: cell-based, Canis lupus familiaris; conditions: dog
# [17] = molecular target: Polymerase acidic protein (Influenza A virus (A/Puerto Rico/8/1934(H1N1)), UniProt P03433); test: Inhibition of Influenza A virus CEN
structure (smiles),measurement,setting,value
CNC(=O)c1cn2c(c(O)c1=O)C(=O)N(CCOC)C[C@@H]2C(c1ccccc1)c1ccccc1,IC50,[1],1590 nM
same,EC50,Influenza A virus [2],7110 nM
CN1C[C@H](C(c2ccccc2)c2ccccc2)n2ccc(=O)c(O)c2C1=O,IC50,[1],80.4 nM
same,EC50,Influenza A virus [2],144 nM
same,"remaining at 0.5 h, 2 µM",[3],79.9%
same,clearance,[4],31.6 mL/min/kg
same,fraction unbound at 24 h,[5],0.285
COCCN1C[C@@H](Cc2ccccc2)n2cc(C(=O)O)c(=O)c(O)c2C1=O,IC50,[1],27400 nM
same,EC50,Influenza A virus [2],> 50000 nM
O=C1N/C(=N\N=C2\C(=O)Nc3ccccc32)S/C1=C1\C(=O)Nc2ccccc21,EC50,Influenza A virus [6],800 nM
COCCN1C[C@H](C(c2ccccc2)c2ccccc2)n2cc(Cl)c(=O)c(O)c2C1=O,EC50,Influenza A virus [2],541 nM
O=c1[nH]c(-c2ccc(F)cc2)c(-c2ccc(-c3nnn[nH]3)cc2)cc1O,EC50,Influenza A virus [7],11400 nM
COCCN1CN(Cc2ccc(F)cc2)n2cc(C(=O)O)c(=O)c(O)c2C1=O,IC50,[1],419 nM
same,EC50,Influenza A virus [2],> 25000 nM
CC(C)N1C[C@H](C(c2ccccc2)c2ccccc2)n2ccc(=O)c(O)c2C1=O,IC50,[1],239 nM
same,EC50,Influenza A virus [2],57.5 nM
same,"remaining at 0.5 h, 2 µM",[3],78.7%
same,clearance,[4],25.3 mL/min/kg
same,fraction unbound at 24 h,[5],0.182
same,EC50,Influenza A virus [8],194 nM
same,EC50,Influenza A virus H3N2 [9],488 nM
same,EC50,Influenza A virus H3N2 [10],232 nM
same,EC50,Influenza B virus [11],100 nM
same,EC50,Influenza B virus [12],177 nM
COCCN1C[C@H](CCc2ccccc2)n2cc(C(=O)O)c(=O)c(O)c2C1=O,IC50,[1],1350 nM
COCCN1CN(C(c2ccccc2)c2ccccc2)n2ccc(=O)c(O)c2C1=O,IC50,[1],103 nM
same,EC50,Influenza A virus [2],75.2 nM
same,"remaining at 0.5 h, 2 µM",[3],83.4%
same,clearance,[4],47.4 mL/min/kg
same,fraction unbound at 24 h,[5],0.129
O=C(O)/C(O)=C/C(=O)C1(Cc2ccc(Cl)cc2)CCN(Cc2ccccc2)CC1,EC50,Influenza A virus [2],38300 nM
COCCN1C[C@H](Cc2ccccc2)n2cc(C(=O)O)c(=O)c(O)c2C1=O,IC50,[1],241 nM
same,EC50,Influenza A virus [2],> 50000 nM
CC(C)N1CN(C(c2ccccc2)c2ccccc2)n2ccc(=O)c(O)c2C1=O,IC50,[1],286 nM
same,EC50,Influenza A virus [2],81.6 nM
same,"remaining at 0.5 h, 2 µM",[3],86%
same,clearance,[4],10.9 mL/min/kg
same,fraction unbound at 24 h,[5],0.0377
same,EC50,Influenza A virus [8],183 nM
same,EC50,Influenza A virus H3N2 [9],829 nM
same,EC50,Influenza A virus H3N2 [10],302 nM
same,EC50,Influenza B virus [11],124 nM
same,EC50,Influenza B virus [12],176 nM
same,Activity,Influenza B virus [13],Dose-dependent effect
same,ED50,Influenza B virus [13],0.89 mg/kg/day
same,survival at 10 mg/kg,Influenza B virus [14],100%
same,Activity,Influenza B virus [15],inactive
same,CC50 at 72 h,[16],> 25000 nM
O=C1c2c(O)c(=O)ccn2N(C(c2ccccc2)c2ccccc2)CN1Cc1ccco1,IC50,[1],588 nM
same,EC50,Influenza A virus [2],478 nM
same,"remaining at 0.5 h, 2 µM",[3],50.6%
same,clearance,[4],42.6 mL/min/kg
same,fraction unbound at 24 h,[5],0.0217
CN1CN(C(c2ccccc2)c2ccccc2)n2ccc(=O)c(O)c2C1=O,IC50,[1],164 nM
same,EC50,Influenza A virus [2],81.6 nM
same,"remaining at 0.5 h, 2 µM",[3],92.1%
same,clearance,[4],18.8 mL/min/kg
same,fraction unbound at 24 h,[5],0.07
COCCN1C[C@H](C(c2ccccc2)c2ccccc2)n2cc(N)c(=O)c(O)c2C1=O,IC50,[1],358 nM
same,EC50,Influenza A virus [2],3860 nM
COCCN1C[C@H](CC(C)C)n2cc(C(=O)O)c(=O)c(O)c2C1=O,IC50,[1],9310 nM
COCCN1CCn2cc(C(=O)O)c(=O)c(O)c2C1=O,IC50,[1],68600 nM
COCCN1C[C@H](C(c2ccccc2)c2ccccc2)n2cc(C(=O)O)c(=O)c(O)c2C1=O,IC50,[1],47.8 nM
same,EC50,Influenza A virus [2],293 nM
COCCN1C[C@H](C(c2ccccc2)c2ccccc2)n2cc(C)c(=O)c(O)c2C1=O,IC50,[1],281 nM
same,EC50,Influenza A virus [2],2470 nM
COCCN1C[C@H](C(c2ccccc2)c2ccccc2)n2cc(OC)c(=O)c(O)c2C1=O,IC50,[1],110 nM
same,EC50,Influenza A virus [2],1680 nM
COCCN1C[C@H](C(C)C)n2cc(C(=O)O)c(=O)c(O)c2C1=O,IC50,[1],2990 nM
O=c1oc2ccc(-c3ccc(F)cc3)cc2cc1O,IC50,[17],500 nM
COCCN1CN(C(c2ccccc2)c2ccccc2)n2cc(C(=O)O)c(=O)c(O)c2C1=O,IC50,[1],116 nM
same,EC50,Influenza A virus [2],1470 nM
COCCN1C[C@H](C(c2ccccc2)c2ccccc2)n2ccc(=O)c(O)c2C1=O,IC50,[1],115 nM
same,EC50,Influenza A virus [2],134 nM
same,"remaining at 0.5 h, 2 µM",[3],79.7%
same,clearance,[4],42.2 mL/min/kg
same,fraction unbound at 24 h,[5],0.297
CCOC(=O)c1cn2c(c(O)c1=O)C(=O)N(CCOC)C[C@@H]2C(c1ccccc1)c1ccccc1,IC50,[1],298 nM
same,EC50,Influenza A virus [2],2530 nM
COCCN1C[C@H](c2ccccc2)n2cc(C(=O)O)c(=O)c(O)c2C1=O,IC50,[1],27800 nM
same,EC50,Influenza A virus [2],> 50000 nM
O=C(NCCc1ccc(O)c(O)c1)c1cc2cc(O)c(O)cc2[nH]1,IC50,[17],940 nM
same,EC50,Influenza A virus [7],16000 nM
O=C(O)c1cn(CC2(n3ccc4cccnc43)CCCC2)cc(O)c1=O,IC50,[17],5 nM
same,EC50,Influenza A virus [7],201 nM

# Source: ChEMBL document CHEMBL4334467, “Synthesis and SAR Study of Carbamoyl Pyridone Bicycle Derivatives as Potent Inhibitors of Influenza Cap-dependent Endonuclease” (J Med Chem, 2019)
